Key:
BEAS-2B cells [1] = assay: Cell viability; assay type: cell-based, human; settings: for Protection against the antiproliferative effects of elastase: Figure 4C, caspase 3 inhibitor 10 μM pre-incubation
[2] = tested on: caspase 3/7 activity of BEAS-2B cells; settings: 100 nM elastase; 10 μM inhibitor pre-incubation
[3] = biological target: Human Pancreatic Chymotrypsin (Homo sapiens, UniProt P17538); assay: In vitro protease assay, human pancreatic chymotrypsin; assay type: biochemical
BEAS-2B cells [4] = assay: Cell detachment and morphology change; assay type: cell-based, human; settings: for Elastase-induced cell rounding (morphology change): 10 μM cotreatment, 3 h
panel of 68 proteases = settings: 10 μM
[5] = tested on: transcript levels in BEAS-2B cells; settings: 3 h cotreatment
[6] = tested on: IκB degradation and p65 nuclear translocation; settings: 3 h of cotreatment
sICAM-1 = settings: 6 h cotreatment, culture supernatant

Human Pancreatic Chymotrypsin, sequence (P17538 19-263): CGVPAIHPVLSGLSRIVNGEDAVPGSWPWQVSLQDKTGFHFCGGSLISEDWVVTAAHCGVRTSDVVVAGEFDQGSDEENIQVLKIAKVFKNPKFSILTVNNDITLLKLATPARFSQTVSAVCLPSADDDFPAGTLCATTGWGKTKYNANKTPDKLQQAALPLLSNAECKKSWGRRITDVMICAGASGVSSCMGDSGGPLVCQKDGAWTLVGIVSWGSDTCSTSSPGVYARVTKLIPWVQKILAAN

## COC(=O)CC[C@H](NC(=O)[C@H](CC(=O)OC)NC(=O)OCc1ccccc1)C(=O)N[C@H](C(=O)N[C@@H](CC(=O)OC)C(=O)CF)C(C)C
BEAS-2B cells [1]
  Protection against the antiproliferative effects of elastase: partially protected
[2]
  Effect on elastase-induced increase in caspase activation: abrogated

## CC(C)(C)C(=O)Oc1ccc(S(=O)(=O)Nc2ccccc2C(=O)NCC(=O)O)cc1 [Sivelestat]
[3]
  IC50: > 10000 nM
BEAS-2B cells [1]
  Protection against the antiproliferative effects of elastase: partially protected
BEAS-2B cells [1]; elastase co-treatment, 24 h
  Concentration required to completely negate elastase-induced cytotoxicity: 100 µM
BEAS-2B cells [4]
  Elastase-induced cell rounding (morphology change): prevented this effect of elastase
BEAS-2B cells [4]; 12 h
  Concentration showing cytoprotective effect against cell detachment: 100 µM

## C/C=C1\NC(=O)[C@@H](NC(=O)[C@H](CCC(N)=O)NC(=O)CCCCC)[C@@H](C)OC(=O)[C@H](C(C)C)NC(=O)[C@H](Cc2ccc(O)cc2)N(C)C(=O)[C@H](Cc2ccccc2)N2C(=O)[C@H](CC[C@H]2O)NC1=O [Lyngbyastatin 7]
Panel of 68 proteases
  Inhibition of the serine proteases elastase, chymotrypsin and proteinase K: completely inhibiting

## elastase: exogenous elastase used to challenge BEAS-2B cells
BEAS-2B cells [1]; read-out: Antiproliferative IC50 of elastase (MTT), BEAS-2B, 24 h
  IC50: 77.5 ± 4.9 nM

## C/C=C1\NC(=O)[C@@H](NC(=O)[C@@H](NC(=O)[C@@H](COS(=O)(=O)[O-])OC)C(C)C)[C@@H](C)OC(=O)[C@H]([C@H](C)CC)NC(=O)[C@H](Cc2ccccc2)N(C)C(=O)[C@H](Cc2ccccc2)N2C(=O)[C@H](CC[C@H]2O)NC1=O.[Na+] [Symplostatin 5 (1), Symplostatin 5]
[5]
  Elastase-induced increase in IL1B transcript levels (RT-qPCR): strongly abrogated
[6]
  Elastase-induced IκB degradation and p65 nuclear translocation: dose-dependently inhibited
BEAS-2B cells [1]; up to 100 μM, with solvent control or 100 nM elastase, 24 h
  Effect on proliferation of BEAS-2B cells: did not significantly affect the proliferation
BEAS-2B cells [4]
  Elastase-induced cell rounding (morphology change): prevented this effect of elastase
sICAM-1
  Concentration that decreased elastase-induced sICAM-1 level: ≥ 1 µM
